Test results from patent US20040106545A1, “Compounds and methods for modulating cell adhesion” (priority 1996, published 2004).
Where “and” joins values, the source holds several entries; their conditions need not be identical. Identical values can stand only once. Entries after “also recorded” stand apart in the source; their conditions may differ.

Experiments:
human skin = assay: Human skin permeability, Franz Cell apparatus
Protocol: Another cell adhesion assay involves evaluating the effect of a modulating agent on permeability of adherent epithelial and/or endothelial cell layers. For example, the effect on permeability of human skin may be evaluated. Such skin may be derived from a natural source or may be synthetic. Human abdominal skin for use in such assays may generally be obtained from humans at autopsy within 24 hours of death. Briefly, a cyclic peptide and a test marker (e.g., the fluorescent markers Oregon Green™ and Rhodamine Green™ Dextran) may be dissolved in a sterile buffer, and the ability of the marker to penetrate through the skin and into a receptor fluid may be measured using a Franz Cell apparatus (Franz, Curr. Prob. Dermatol. 7:58-68, 1978; Franz, J. Invest. Dermatol. 64:190-195, 1975). In general, a modulating agent that enhances the permeability of human skin results in a statistically significant increase in the amount of marker in the receptor compartment after 6-48 hours in the presence of 500 μg/mL modulating agent. This assay evaluates the effect of a modulating agent on E-cadherin mediated cell adhesion.
Abdominal skin from humans at autopsy within 24 hours of death was used in these assays. The effect of N—Ac-CHAVC-NH2 (SEQ ID NO:10) and N—Ac-CHGVC-NH2 (SEQ ID NO:11), used at a concentration of 500 μg/ml or 2.5 mg/ml, on the penetration of two fluorescent markers, Oregon Green 488 (charge −1, MW 386 daltons) and Rhodamine Green 3000 Dextran (no charge, MW 3000 daltons) through human skin was then evaluated utilizing a Franz Cell apparatus (Franz, Curr. Prob. Dermatol. 7:58-68, 1978; Franz, J. Invest. Dermatol. 64:190-195, 1975). The peptides and markers were dissolved in sterile phosphate buffer, pH 7.2, and phosphate buffer was used as the receptor fluid. 150 μl of solution containing 0.2 mg Oregon Green and 1.0 mg Rhodamine Green was used to evaluate 500 μg/ml peptide; 200 μl of solution containing 0.05 mg Oregon Green and 1.250 mg Rhodamine Green was used to evaluate 2.5 mg/ml peptide. The solution was placed on top of the epidermal side of the skin, and the penetration of the markers through the skin was assessed using a fluorescent spectrophotometric method (in a Perkin Elmer 650-105 Fluorescence Spectrophotometer, and comparing the reading to a standard curve) at 6, 12, 24, 36, and 48 hours after the start of the experiment. The fluorescent units were converted to a concentration unit of microgram/5 ml (volume of the receiver compartment) using a standard curve and regression analysis equations. The curve was linear for the concentrations tested for both markers (r^2=1 for OrG and 0.997 for RhG). For each peptide and marker combination, the experiment was performed in triplicate.

[1] = test system: A1N4 human breast epithelial cells; assay: Disruption of breast epithelial cell adhesion, E-cadherin staining; type: cell-based; settings: 500 μg/mL, 48 hours
Protocol: A1N4 human breast epithelial cells (kindly provided by Martha Stampfer, Lawrence Berkeley Laboratory, Berkeley, Calif.) were plated on glass coverslips and cultured in F12/DME containing 0.5% FCS and 10 ng/mL EGF for 24 hours. Fresh medium containing the cyclic peptides (final concentration 500 μg/mL media) N—Ac-CHAVC-NH2 (SEQ ID NO:10) or N—Ac-CHGVC-NH2 (SEQ ID NO:11) was then added. Following 24 hours of culture in the presence of the peptides, the medium was removed and fresh medium containing the peptides was added. The cells were fixed 24 hours later with cold methanol and stored in phosphate buffered saline (PBS).
Coverslips were blocked for 1 hour in 3% ovalbumin/PBS and incubated for a further 1 hour in the presence of 1 μg/mL mouse anti-E-cadherin antibody (Zymed, Gaithersburg, Md.). Primary and secondary antibodies were diluted in PBS containing 6% normal goat serum. Following incubation in the primary antibody, coverslips were washed 3 times for 5 minutes each in PBS and incubated for 1 hour with goat anti-mouse conjugated to fluorescein (Kiekegard and Perry, South San Francisco, Calif.) diluted 1:100. Following a further wash in PBS (3×5 minutes) coverslips were mounted in Vectashield (Vector Labs, Burlingame, Calif.) and viewed with a Zeiss infinity corrected microscope.

[2] = test system: SKOV3 human ovarian cancer cells; assay: Induction of apoptosis in SKOV3 cancer cells, in situ cell death detection; type: cell-based; settings: 0.5 or 0.25 mg/mL, 48 hours
Protocol: Direct assays of induction of apoptosis may be performed using any standard technique. For example, cadherin-expressing cells (e.g., SKOV3 human ovarian cancer cells) may be plated onto poly-L-lysine coated glass slides and cultured with 500 μg/mL of modulating agent for 24-48 hours. Cells may then be fixed and assayed for cell death using any of a variety of well known methods. For example, an in situ cell death detection kit may be purchased from Boehringer Mannheim (Laval, Quebec) and used according to the manufacturer's instructions.
SKOV3 human ovarian cancer cells cultured in the presence of either N—Ac-CHAVC-NH2 (SEQ ID NO:10) or a control peptide (N—Ac-CHGVC-NH2; SEQ ID NO:11) in MEM with 10% FBS were plated onto poly-L-lysine coated glass slides. The cells were cultured for 24 or 48 hours and fixed with 4% paraformaldehyde for 30 minutes at room temperature. The slides were then washed three times with PBS and assessed for cell death. Cells were treated with 0.5 or 0.25 mg/mL of N—Ac-CHAVC-NH2 (SEQ ID NO:10) or the control N—Ac-CHGVC-NH2 (SEQ ID NO:11), as indicated. Cell death was measured as described by Gavrieli et al, J. Cell. Biol. 119:493-501, 1992 and using the In situ cell death detection kit (Boehringer Mannheim; Laval, Quebec).

[3] = 500 μg/ml Peptide, t = 6 hours, Mean
[4] = 500 μg/ml Peptide, t = 6 hours, single replicates, listed as Sample#1
[5] = 500 μg/ml Peptide, t = 12 hours, Mean
[6] = 500 μg/ml Peptide, t = 12 hours, single replicates, listed as Sample#1
[7] = 500 μg/ml Peptide, t = 24 hours, Mean
[8] = 500 μg/ml Peptide, t = 24 hours, single replicates, listed as Sample#1
[9] = 500 μg/ml Peptide, t = 36 hours, Mean
[10] = 500 μg/ml Peptide, t = 36 hours, single replicates, listed as Sample#1
[11] = 500 μg/ml Peptide, t = 48 hours, Mean
[12] = 500 μg/ml Peptide, t = 48 hours, single replicates, listed as Sample#1
[13] = 2.5 mg/ml Peptide, t = 6 hours, Mean
[14] = 2.5 mg/ml Peptide, t = 6 hours, single replicates, listed as Sample#1
[15] = 2.5 mg/ml Peptide, t = 12 hours, Mean
[16] = 2.5 mg/ml Peptide, t = 12 hours, single replicates, listed as Sample#1
[17] = 2.5 mg/ml Peptide, t = 24 hours, Mean
[18] = 2.5 mg/ml Peptide, t = 24 hours, single replicates, listed as Sample#1
[19] = 2.5 mg/ml Peptide, t = 36 hours, Mean
[20] = 2.5 mg/ml Peptide, t = 36 hours, single replicates, listed as Sample#1
[21] = 2.5 mg/ml Peptide, t = 48 hours, Mean
[22] = 2.5 mg/ml Peptide, t = 48 hours, single replicates, listed as Sample#1

Compound: CC(=O)N[C@H]1CSSC[C@@H](C(N)=O)NC(=O)[C@H](C(C)C)NC(=O)[C@H](C)NC(=O)[C@H](Cc2c[nH]cn2)NC1=O [N—Ac—CHAVC—NH2, N-Ac-Cys-His-Ala-Val-Cys-NH2]
- penetration of Oregon Green through the skin, compared to control peptide (human skin; 500 μg/ml): slightly increased the penetration of Oregon Green through the skin
- penetration of Rhodamine Green through the skin, compared to control peptide (human skin; 500 μg/ml): significantly increased
- Percutaneous absorption concentration for Dextran Rhodamine Green 3000 (human skin; [3]): 0.8 mg/5ml
- Percutaneous absorption concentration for Oregon Green 488 (human skin; [3]): 0.084 mg/5ml
- Percutaneous absorption concentration for Dextran Rhodamine Green 3000 (human skin; [4]): 0.4 mg/5ml and 0.8 mg/5ml and 1.2 mg/5ml
- Percutaneous absorption concentration for Oregon Green 488 (human skin; [4]): 0.028 mg/5ml and 0.167 mg/5ml and 0.058 mg/5ml
- Percutaneous absorption concentration for Dextran Rhodamine Green 3000 (human skin; [5]): 3.52 mg/5ml
- Percutaneous absorption concentration for Oregon Green 488 (human skin; [5]): 0.225 mg/5ml
- Percutaneous absorption concentration for Dextran Rhodamine Green 3000 (human skin; [6]): 3.0 mg/5ml and 2.0 mg/5ml and 5.556 mg/5ml
- Percutaneous absorption concentration for Oregon Green 488 (human skin; [6]): 0.096 mg/5ml and 0.322 mg/5ml and 0.352 mg/5ml
- Percutaneous absorption concentration for Dextran Rhodamine Green 3000 (human skin; [7]): 11.15 mg/5ml
- Percutaneous absorption concentration for Oregon Green 488 (human skin; [7]): 0.780 mg/5ml
- Percutaneous absorption concentration for Dextran Rhodamine Green 3000 (human skin; [8]): 16.174 mg/5ml and 4.074 mg/5ml and 13.158 mg/5ml
- Percutaneous absorption concentration for Oregon Green 488 (human skin; [8]): 0.470 mg/5ml and 1.096 mg/5ml and 0.773 mg/5ml
- Percutaneous absorption concentration for Dextran Rhodamine Green 3000 (human skin; [9]): 14.72 mg/5ml
- Percutaneous absorption concentration for Oregon Green 488 (human skin; [9]): 1.00 mg/5ml
- Percutaneous absorption concentration for Dextran Rhodamine Green 3000 (human skin; [10]): 21.044 mg/5ml and 5.556 mg/5ml and 17.565 mg/5ml
- Percutaneous absorption concentration for Oregon Green 488 (human skin; [10]): 0.544 mg/5ml and 1.56 mg/5ml and 0.902 mg/5ml
- Percutaneous absorption concentration for Dextran Rhodamine Green 3000 (human skin; [11]): 20.02 mg/5ml
- Percutaneous absorption concentration for Oregon Green 488 (human skin; [11]): 1.120 mg/5ml
- Percutaneous absorption concentration for Dextran Rhodamine Green 3000 (human skin; [12]): 25.747 mg/5ml and 6.481 mg/5ml and 27.826 mg/5ml
- Percutaneous absorption concentration for Oregon Green 488 (human skin; [12]): 0.665 mg/5ml and 1.725 mg/5ml and 0.971 mg/5ml
- penetration of Oregon Green through the skin, compared to control peptide (human skin; 2.5 mg/ml): increased the penetration of Oregon Green through the skin
- penetration of Rhodamine Green through the skin, compared to control peptide (human skin; 2.5 mg/ml): significantly increased
- Percutaneous absorption concentration for Dextran Rhodamine Green 3000 (human skin; [13]): 12.66 mg/5ml
- Percutaneous absorption concentration for Oregon Green 488 (human skin; [13]): 0.14 mg/5ml
- Percutaneous absorption concentration for Dextran Rhodamine Green 3000 (human skin; [14]): 24.52 mg/5ml and 2.4 mg/5ml and 11.05 mg/5ml
- Percutaneous absorption concentration for Oregon Green 488 (human skin; [14]): 0.14 mg/5ml and 0.11 mg/5ml and 0.16 mg/5ml
- Percutaneous absorption concentration for Dextran Rhodamine Green 3000 (human skin; [15]): 31.47 mg/5ml
- Percutaneous absorption concentration for Oregon Green 488 (human skin; [15]): 0.40 mg/5ml
- Percutaneous absorption concentration for Dextran Rhodamine Green 3000 (human skin; [16]): 45.35 mg/5ml and 25.22 mg/5ml and 23.83 mg/5ml
- Percutaneous absorption concentration for Oregon Green 488 (human skin; [16]): 0.44 mg/5ml and 0.32 mg/5ml and 0.45 mg/5ml
- Percutaneous absorption concentration for Dextran Rhodamine Green 3000 (human skin; [17]): 48.78 mg/5ml
- Percutaneous absorption concentration for Oregon Green 488 (human skin; [17]): 0.54 mg/5ml
- Percutaneous absorption concentration for Dextran Rhodamine Green 3000 (human skin; [18]): 66.28 mg/5ml and 35.22 mg/5ml and 44.85 mg/5ml
- Percutaneous absorption concentration for Oregon Green 488 (human skin; [18]): 0.67 mg/5ml and 0.33 mg/5ml and 0.63 mg/5ml
- Percutaneous absorption concentration for Dextran Rhodamine Green 3000 (human skin; [19]): 71.28 mg/5ml
- Percutaneous absorption concentration for Oregon Green 488 (human skin; [19]): 0.88 mg/5ml
- Percutaneous absorption concentration for Dextran Rhodamine Green 3000 (human skin; [20]): 120.0 mg/5ml and 42.36 mg/5ml and 51.50 mg/5ml
- Percutaneous absorption concentration for Oregon Green 488 (human skin; [20]): 0.76 mg/5ml and 0.88 mg/5ml and 0.99 mg/5ml
- Percutaneous absorption concentration for Dextran Rhodamine Green 3000 (human skin; [21]): 133.56 mg/5ml
- Percutaneous absorption concentration for Oregon Green 488 (human skin; [21]): 0.82 mg/5ml
- Percutaneous absorption concentration for Dextran Rhodamine Green 3000 (human skin; [22]): 146.79 mg/5ml and 47.00 mg/5ml and 60.1 mg/5ml
- Percutaneous absorption concentration for Oregon Green 488 (human skin; [22]): 0.83 mg/5ml and 0.56 mg/5ml and 1.06 mg/5ml
- E-cadherin staining and monolayer of A1N4 cells [1]: distribution of E-cadherin is non-contiguous; also recorded: reduced E-cadherin staining with a stitched appearance
- cell death of SKOV3 cells [2]: fluorescent green nuclei in FIGS. 35C and 35D indicate cell death; also recorded: can cause human ovarian cancer cell death
